According to PubChem BioAssay AID248 (DTP/NCI, 2004):
Several values for one entry are separate records, joined by “and”; a condition that tells them apart may be missing. Equal values may be shown once. Toxic doses and inconclusive results are not listed. Cut-off read from the data, not from the text of the source: active = T/C of 150% or more; inactive = T/C below 125%.

Test system: L1210 leukemia ip in BDF1 mice, survival T/C
Test: NCI In Vivo Anticancer Drug Screen. Data for tumor model L1210 Leukemia (intraperitoneal) in B6D2F1 (BDF1) mice
Settings: endpoint: mean survival time, higher = longer survival
Procedure, shortened: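 Antitumor effect is assessed in tumor-bearing animals. Survival in the compound arm is compared with a vehicle-dosed control arm and expressed as their quotient.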

[1] = dose: 100.0 mg/kg/injection, schedule: Q01DX009 (ip), vehicle: saline with Tween-80
[2] = dose: 100.0 mg/kg/injection, schedule: Q04DX003 (ip), vehicle: saline with Tween-80
[3] = dose: 200.0 mg/kg/injection, schedule: Q01DX009 (ip), vehicle: saline with Tween-80
[4] = dose: 200.0 mg/kg/injection, schedule: Q04DX003 (ip), vehicle: saline with Tween-80
[5] = dose: 400.0 mg/kg/injection, schedule: Q01DX009 (ip), vehicle: saline with Tween-80
[6] = dose: 400.0 mg/kg/injection, schedule: Q04DX003 (ip), vehicle: saline with Tween-80
[7] = dose: 100.0 mg/kg/injection, schedule: Q04DX002 (ip), vehicle: Klucel (hydroxypropylcellulose) (HPC)
[8] = dose: 200.0 mg/kg/injection, schedule: Q04DX002 (ip), vehicle: Klucel (hydroxypropylcellulose) (HPC)
[9] = dose: 400.0 mg/kg/injection, schedule: Q04DX002 (ip), vehicle: Klucel (hydroxypropylcellulose) (HPC)
[10] = dose: 50.0 mg/kg/injection, schedule: Q04DX003 (ip), vehicle: saline with Tween-80

Measured: T/C

NC(=O)c1[nH]cnc1/N=N/N(CCO)CCO
inactive: dose: 50.0 mg/kg/injection, schedule: Q01DX001 (ip), vehicle: water 102 % of control | dose: 50.0 mg/kg/injection, schedule: Q04DX003 (ip), vehicle: water 100 % of control | dose: 100.0 mg/kg/injection, schedule: Q01DX001 (ip), vehicle: water 97 % of control | [1] 105 % of control | [2] 101 % of control | dose: 100.0 mg/kg/injection, schedule: Q04DX003 (ip), vehicle: water 101 % of control | dose: 200.0 mg/kg/injection, schedule: Q01DX001 (ip), vehicle: water 103 % of control | [3] 105 % of control | [4] 101 % of control | dose: 200.0 mg/kg/injection, schedule: Q04DX003 (ip), vehicle: water 100 % of control | dose: 400.0 mg/kg/injection, schedule: Q01DX001 (ip), vehicle: water 101 % of control | [5] 100 % of control | [6] 98 % of control | dose: 400.0 mg/kg/injection, schedule: Q04DX003 (ip), vehicle: water 101 % of control

CCC(C)C(C)CO (stereo not given)
inactive: dose: 50.0 mg/kg/injection, schedule: Q01DX001 (ip), vehicle: saline 108 % of control | dose: 100.0 mg/kg/injection, schedule: Q01DX001 (ip), vehicle: saline 100 % of control | dose: 200.0 mg/kg/injection, schedule: Q01DX001 (ip), vehicle: saline 88 % of control

O=C1c2ccccc2C(O)(O)C1(O)C1(O)C(=O)c2ccccc2C1(O)O (stereo not given)
inactive: dose: 100.0 mg/kg/injection, schedule: Q01DX001 (ip), vehicle: carboxymethylcellulose (CMC) 109 % of control | dose: 200.0 mg/kg/injection, schedule: Q01DX001 (ip), vehicle: carboxymethylcellulose (CMC) 103 % of control

Cc1ccccc1-n1cccc1C(=O)O
inactive: [7] 89 % of control | [8] 96 % of control | [9] 86 % of control

O=C(Nc1ccccc1F)N1CCCCC1
inactive: dose: 100.0 mg/kg/injection, schedule: Q01DX009 (ip), vehicle: gum acacia 97 % of control | dose: 200.0 mg/kg/injection, schedule: Q01DX009 (ip), vehicle: gum acacia 97 % of control | dose: 400.0 mg/kg/injection, schedule: Q01DX009 (ip), vehicle: gum acacia 100 % of control

Cc1ccc(Br)c2c1CCC2=O
inactive: dose: 100.0 mg/kg/injection, schedule: Q01DX001 (ip), vehicle: Klucel (hydroxypropylcellulose) (HPC) 93 % of control | dose: 200.0 mg/kg/injection, schedule: Q01DX001 (ip), vehicle: Klucel (hydroxypropylcellulose) (HPC) 100 % of control | dose: 400.0 mg/kg/injection, schedule: Q01DX001 (ip), vehicle: Klucel (hydroxypropylcellulose) (HPC) 93 % of control

CCCCCCCCCCCCCC[N+](C)(C)Cc1cc(=O)c(O)co1
inactive: dose: 12.5 mg/kg/injection, schedule: Q01DX015 (ip), vehicle: saline 97 % of control | dose: 25.0 mg/kg/injection, schedule: Q01DX015 (ip), vehicle: saline 102 % of control | dose: 25.0 mg/kg/injection, schedule: Q04DX003 (ip), vehicle: saline with Tween-80 97 % of control | dose: 50.0 mg/kg/injection, schedule: Q01DX015 (ip), vehicle: saline 96 % of control | [10] 101 % of control | dose: 100.0 mg/kg/injection, schedule: Q01DX015 (ip), vehicle: saline 106 % of control | dose: 100.0 mg/kg/injection, schedule: Q04DX003 (ip), vehicle: Klucel (hydroxypropylcellulose) (HPC) 87 % of control | [2] 101 % of control

Cc1ccc(COC(=O)Nc2ccc(C)c(NC(=O)OCc3ccc(C)cc3)c2)cc1
inactive: [1] 90 % of control | [5] 90 % of control

O=C(Oc1ccc(S(=O)(=O)F)cc1F)c1ccccc1Cl
inactive: [7] 95 % of control | [8] 89 % of control

O=C1C(N2CCOCC2)=C(N2CC2)C(=O)C(N2CCOCC2)=C1N1CC1
inactive: dose: 0.19 mg/kg/injection, schedule: Q04DX003 (ip), vehicle: saline 92 % of control and 102 % of control | dose: 0.37 mg/kg/injection, schedule: Q04DX003 (ip), vehicle: saline 94 % of control and 107 % of control | dose: 0.75 mg/kg/injection, schedule: Q01DX009 (ip), vehicle: saline 105 % of control and 118 % of control | dose: 0.75 mg/kg/injection, schedule: Q04DX003 (ip), vehicle: saline 107 % of control and 113 % of control | dose: 1.5 mg/kg/injection, schedule: Q01DX009 (ip), vehicle: saline 120 % of control | dose: 1.5 mg/kg/injection, schedule: Q04DX003 (ip), vehicle: saline 105 % of control | dose: 3.0 mg/kg/injection, schedule: Q04DX003 (ip), vehicle: saline 122 % of control | dose: 3.12 mg/kg/injection, schedule: Q01DX001 (ip), vehicle: saline 86 % of control | dose: 12.0 mg/kg/injection, schedule: Q04DX003 (ip), vehicle: saline 115 % of control

O=[N+]([O-])c1ccc(NCc2ccccc2)nc1
inactive: dose: 100.0 mg/kg/injection, schedule: Q04DX002 (ip), vehicle: saline with Tween-80 91 % of control | dose: 111.0 mg/kg/injection, schedule: Q01DX Z (ip), vehicle: carboxymethylcellulose (CMC) 111 % of control | dose: 166.7 mg/kg/injection, schedule: Q01DX Z (ip), vehicle: carboxymethylcellulose (CMC) 98 % of control | dose: 200.0 mg/kg/injection, schedule: Q04DX002 (ip), vehicle: saline with Tween-80 97 % of control | dose: 250.0 mg/kg/injection, schedule: Q01DX Z (ip), vehicle: carboxymethylcellulose (CMC) 101 % of control | dose: 375.0 mg/kg/injection, schedule: Q01DX Z (ip), vehicle: carboxymethylcellulose (CMC) 100 % of control | dose: 400.0 mg/kg/injection, schedule: Q04DX002 (ip), vehicle: saline with Tween-80 103 % of control

CCOC(=O)C1C(O)=C(c2ccccc2)P(=O)(Cc2ccccc2)C1(C)C (stereo not given)
inactive: [2] 94 % of control | [4] 94 % of control | [6] 91 % of control

CC(=O)Oc1ccc(C2OC(=O)c3ccccc3N2C(C)=O)cc1 (stereo not given)
inactive: [1] 101 % of control | [3] 101 % of control | [5] 92 % of control

CCOC(=O)CNCC(O)C(Cl)(Cl)Cl (stereo not given)
inactive: [1] 92 % of control | [3] 86 % of control

COc1ccc2c3c([nH]c2c1)-c1ccccc1SC3
inactive: dose: 100.0 mg/kg/injection, schedule: Q04DX003 (ip), vehicle: acetone 101 % of control | dose: 200.0 mg/kg/injection, schedule: Q04DX003 (ip), vehicle: acetone 106 % of control | dose: 400.0 mg/kg/injection, schedule: Q04DX003 (ip), vehicle: acetone 101 % of control

Nc1nc(SCc2ccccc2)c2ncn(C3CCCO3)c2n1 (stereo not given)
inactive: dose: 25.0 mg/kg/injection, schedule: Q01DX Z (ip), vehicle: methylcellulose (MC) 101 % of control | dose: 50.0 mg/kg/injection, schedule: Q01DX Z (ip), vehicle: methylcellulose (MC) 120 % of control

CCCCCC(=O)Nc1cccc(O)c1
inactive: [2] 92 % of control | [4] 98 % of control

CC1(C)CC(=O)C=C(N2CCC(CCCC3CCN(C4=CC(=O)CC(C)(C)C4)CC3)CC2)C1
inactive: [10] 94 % of control | [2] 102 % of control | [4] 88 % of control

Cc1ccc(N=Nc2ccccn2)cc1
inactive: [7] 104 % of control | [8] 93 % of control | [9] 93 % of control

Cc1ccc(NCCN2CCCCC2)c2c(=O)c3ccccc3sc12
inactive: dose: 100.0 mg/kg/injection, schedule: Q01DX009 (ip), vehicle: saline 110 % of control | dose: 200.0 mg/kg/injection, schedule: Q01DX009 (ip), vehicle: saline 96 % of control | dose: 400.0 mg/kg/injection, schedule: Q01DX009 (ip), vehicle: saline 107 % of control
